According to article PMC6706398 (Scientific Reports, 2019):
“And” between values parts separate entries of the source, which are not always exact repeats. Equal entries are not always repeated. Where two headings read alike, the source gives them in different places.

What was measured:
[1] = system: CTB binding in cell culture (intestinal epithelial cells); settings: cited from earlier work
[2] = target: wild-type CT holotoxin (cCT) (Vibrio cholerae, UniProt Q57193); assay: biochemical; type: binding
CT [3] = settings: cited from earlier work
[4] = system: CTB binding to jejunal epithelial cells; settings: cited from earlier work
CT [5] = settings: cited from earlier work; remark: listed apart in the source

In the case of `C[C@H](O)[C@@H](O)[C@@H](O)[C@H](O)C=O` [L-fucose], the “blocking of CTB binding in cell culture” value [1] is given as “block CTB binding”.
In the case of `CC(=O)N[C@H]1[C@H](O[C@@H]2[C@H](O[C@]3(C(=O)O)C[C@H](O)[C@@H](NC(C)=O)[C@H]([C@H](O)[C@H](O)CO)O3)[C@@H](O)[C@H](O[C@H]3[C@H](O)[C@@H](O)[C@H](O)O[C@@H]3CO)O[C@@H]2CO)O[C@H](CO)[C@H](O)[C@@H]1O[C@@H]1O[C@H](CO)[C@H](O)[C@H](O)[C@H]1O[C@@H]1O[C@@H](C)[C@@H](O)[C@@H](O)[C@@H]1O` [GM1os], the Kd [2] is given as 5.77e-05 ± 3e-07 mM and the Kd (CT [3]) is given as 43 nM.
In the case of `CC(=O)N[C@@H]1[C@@H](O[C@@H]2O[C@@H](C)[C@@H](O)[C@@H](O)[C@@H]2O)[C@H](O[C@@H]2O[C@H](CO)[C@H](O)[C@H](O)[C@H]2O)[C@@H](CO)O[C@H]1O` [Le^x triaose], the Kd ([2]; Kd) is listed as 8.1 mM and 8 mM and the “blocking of CTB binding to jejunal epithelial cells” value [4] is listed as “can be blocked”.
Work on `CC(=O)N[C@H]1[C@H](O[C@@H]2[C@@H](O)[C@H](O)O[C@H](CO)[C@@H]2O)O[C@H](CO)[C@@H](O[C@@H]2O[C@H](CO)[C@H](O)[C@H](O)[C@H]2O)[C@@H]1O[C@@H]1O[C@@H](C)[C@@H](O)[C@@H](O)[C@@H]1O` [Le^x tetraose] yielded a Kd ([2]; Kd) of 7.7 ± 0.5 mM.
In the case of `CC(=O)N[C@H]1[C@H](O[C@@H]2[C@H](O[C@]3(C(=O)O)C[C@H](O)[C@@H](NC(C)=O)[C@H]([C@H](O)[C@H](O)CO)O3)[C@@H](O)[C@H](O[C@H]3[C@H](O)[C@@H](O)[C@H](O)O[C@@H]3CO)O[C@@H]2CO)O[C@H](CO)[C@H](O)[C@@H]1O[C@@H]1O[C@H](CO)[C@H](O)[C@H](O)[C@H]1O[C@@H]1O[C@@H](C)[C@@H](O)[C@@H](O)[C@@H]1O` [Fucosyl-GM1], the “binding to CT relative to GM1” value (CT [5]) is listed as “almost as strongly as GM1”.
